| Compound | melting point |
| --- | --- |
| Cc1ccn(C(N)=O)n1 [3-methyl-1h-pyrazole-1-carboxamide] | 125 °C |
| CC(=O)C(C)C [3-methyl-2-butanone] | -92 °C |
| Cc1cccc(C(=O)NCC(=O)O)c1 [3-methylhippuric acid] | 139 °C |
| Cc1cccc([N+](=O)[O-])c1C [3-nitro-1,2-dimethylbenzene] | 9 °C |
| Cc1cccc([N+](=O)[O-])c1C [3-nitro-o-xylene] | 14 °C |
| O=[N+]([O-])c1cccc(O)c1 [3-nitrophenol] | 97 °C |
| O=C1NC(=O)c2c1cccc2[N+](=O)[O-] [3-nitrophthalimide] | 219 °C |
| CCC#CCCCC [3-octyne] | -104 °C |
| CC(CCC(=O)O)C1CCC2C3CCC4CC(=O)CCC4(C)C3CCC12C (stereo not given) [3-oxocholan-24-oic acid] | 140 °C |
| CCC(=O)CC [3-pentanone] | -39 °C |
| OCC(O)COc1ccccc1 (stereo not given) [3-phenoxy-1,2-propanediol] | 58 °C |
| N#CC1(C#N)C=C(c2ccccc2)c2ccccc21 [3-phenyl-1H-indene-1,1-dicarbonitrile] | 135 °C |
| O=C(O)CCP(=O)(O)O [3-phosphonopropionic acid] | 164 °C |
| CN1N=C(C(C)(C)C)CC1=O [3-tert-butyl-1-methyl-2-pyrazolin-5-one] | 149 °C |
| CC(=O)c1ccc(N2CCNCC2)cc1 [4'-(1-piperazinyl)acetophenone] | 96 °C |
| CC(=O)c1ccc(Br)cc1 [4'-bromoacetophenone] | 51 °C |
| COc1ccc(C(C)=O)cc1 [4'-methoxyacetophenone] | 38 °C |
| CC(=O)c1ccc(C)cc1 [4'-methylacetophenone] | -19 °C |
| CC(=O)Nc1ccc([N+](=O)[O-])cc1 [4'-nitroacetanilide] | 216 °C |
| Clc1ccc(C(c2ccc(Cl)cc2)C(Cl)(Cl)Cl)cc1 [4,4'-DDT] | 110 °C |
| Fc1ccc(-c2ccc(F)cc2)cc1 [4,4'-difluorobiphenyl] | 88 °C |

| Compound | melting point |
| --- | --- |
| C#CC1(O)CCC2C3CCC4C(C)(C)CCCC4(C)C3CCC21C (stereo not given) [4,4-dimethylpregn-20-yn-17-ol] | 157 °C |
| Cc1ccc(C)c2c1C(=O)NC2=O [4,7-dimethyl-1H-isoindole-1,3(2H)-dione] | 224 °C |
| CN(C)c1ccc(C=O)cc1 [4-(Dimethylamino)benzaldehyde] | 74 °C |
| N#Cc1ccc(Oc2ccnc3ccccc23)cc1C#N [4-(Quinolin-4-yloxy)phthalonitrile] | 175 °C |
| OB(O)c1ccc(CBr)cc1 [4-(bromomethyl)benzeneboronic acid] | 148 °C |
| O=C(CCl)N1CCOCC1 [4-(chloroacetyl)morpholine] | 29 °C |
| Cc1c(N(C)C)c(=O)n(-c2ccccc2)n1C [4-(dimethylamino)antipyrine] | 107 °C |
| CCOC(=O)c1ccc(B(O)O)cc1 [4-(ethoxycarbonyl)benzeneboronic acid] | 139 °C |
| CS(=O)c1ccc(B(O)O)cc1 (stereo not given) [4-(methylsulfinyl)benzeneboronic acid] | 170 °C |
| CSc1ccc(CC(=O)O)cc1 [4-(methylthio)phenylacetic acid] | 100 °C |
| C=CCc1ccc(O)c(OC)c1 [4-Allyl-2-methoxyphenol] | -9 °C |
| Nc1ccc(S(=O)(=O)Nc2nccs2)cc1 [4-Amino-N-(1,3-thiazol-2-yl)benzenesulfonamide] | 202 °C |
| Nc1ccc(Br)cc1 [4-Bromoaniline] | 66 °C |
| CCOc1ccc(N)cc1 [4-Ethoxyaniline] | 3 °C |
| N#Cc1ccc(O)cc1 [4-Hydroxybenzonitrile] | 112 °C |
| CC1COC(=O)O1 (stereo not given) [4-Methyl-1,3-dioxolan-2-one] | -55 °C |
| Cc1ccc(C#N)cc1 [4-Methylbenzonitrile] | 29 °C |
| NC(=O)c1ccc([N+](=O)[O-])cc1 [4-Nitrobenzamide] | 202 °C |
| O=C(O)c1ccc([N+](=O)[O-])cc1 [4-Nitrobenzoic acid] | 240 °C |
| O=C(Cl)c1ccc([N+](=O)[O-])cc1 [4-Nitrobenzoyl chloride] | 75 °C |
| CC(=O)Oc1ccc(C(=O)O)cc1 [4-acetoxybenzoic acid] | 194 °C |

The next lines start with the values.

| melting point | Compound |
| --- | --- |
| -135 °C | CC=C(C)CC [3-methyl-cis-2-pentene] |
| -129 °C | CC=C(/C)CCC [3-methyl-trans-2-hexene] |
| 5 °C | Cc1cccc(-c2ccccc2)c1 [3-methylbiphenyl] |
| -121 °C | CCCCC(C)CC (stereo not given) [3-methylheptane] |
| -82 °C | C=Cc1cccc(C)c1 [3-methylstyrene] |
| 67 °C | CCCCCCSc1nc[nH]n1 [3-n-hexylthio-1,2,4-triazole] |
| 202 °C | Nc1ccc(/C=C/c2ccc([N+](=O)[O-])cc2)c([N+](=O)[O-])c1 [3-nitro-4-[(E)-2-(4-nitrophenyl)ethenyl]aniline] |
| 61 °C | O=[N+]([O-])c1cccc(S(=O)(=O)Cl)c1 [3-nitrobenzenesulfonyl chloride] |
| 142 °C | O=C(O)c1cccc([N+](=O)[O-])c1 [3-nitrobenzoic acid] |
| 32 °C | O=[N+]([O-])c1cccc(CO)c1 [3-nitrobenzyl_alcohol] |
| 102 °C | CC(=O)OC1CC2C(CCC3(C)C(C(C)CCCC(C)C)CCC23)C2(C)CCC(=O)C=C12 (stereo not given) [3-oxocholest-4-en-6-yl acetate] |
| 116 °C | O=C1CC(C(=O)O)c2ccccc21 (stereo not given) [3-oxoindane-1-carboxylic acid] |
| 51 °C | O=C1C=C(c2ccccc2)c2ccccc21 [3-phenyl-1H-inden-1-one] |
| -42 °C | O=CCCc1ccccc1 [3-phenylpropionaldehyde] |
| 49 °C | O=C(O)CCc1ccccc1 [3-phenylpropionic acid] |
| 13 °C | CCCCCCCCC(=O)CC [3-undecanone] |
| 128 °C | C=Cc1cccc(B(O)O)c1 [3-vinylbenzeneboronic acid] |
| 128 °C | CC(=O)C(=Cc1ccc(-c2ccccc2[N+](=O)[O-])o1)C(C)=O [3-{[5-(2-nitrophenyl)-2-furyl]methylene}pentane-2,4-dione] |
| 140 °C | CC(=O)Nc1ccc(C(C)=O)cc1Br [4'-acetamido-3'-bromoacetophenone] |
| 248 °C | CC(=O)Nc1c(Br)cc(N)cc1Br [4'-amino-2',6'-dibromoacetanilide] |
| 143 °C | CCc1cc(Br)ccc1NC(C)=O [4'-bromo-2'-ethylacetanilide] |
| 118 °C | CC(=O)Nc1ccc(Br)c(C(F)(F)F)c1 [4'-bromo-3'-(trifluoromethyl)acetanilide] |
| 124 °C | CC(=O)Nc1ccc(Br)c(Cl)c1 [4'-bromo-3'-chloroacetanilide] |
| 156 °C | CC(=O)Nc1ccc(Cl)cc1F [4'-chloro-2'-fluoroacetanilide] |
| 29 °C | CC(=O)c1ccc(Cl)cc1O [4'-chloro-2'-hydroxyacetophenone] |
| 32 °C | CC(=O)c1ccc(F)cc1O [4'-fluoro-2'-hydroxyacetophenone] |
| 103 °C | COc1ccc(-c2ccc(S(=O)(=O)Cl)cc2)cc1 [4'-methoxybiphenyl-4-sulfonyl chloride] |

| melting point | Compound |
| --- | --- |
| 226 °C | CCCc1ccc(-c2ccc(C(=O)O)cc2)cc1 [4'-n-propylbiphenyl-4-carboxylic acid] |
| 44 °C | CC(O)CCc1ccc(CCC(C)O)cc1 (stereo not given) [4,4'-benzene-1,4-diyldibutan-2-ol] |
| 177 °C | Nc1ccc(S(=O)(=O)c2ccc(N)cc2)cc1 [4,4'-diaminodiphenyl sulfone] |
| 29 °C | Cc1ccc(Cc2ccc(C)cc2)cc1 [4,4'-dimethyldiphenylmethane] |
| 173 °C | CC(CCC(=O)O)(c1ccc(O)cc1)c1ccc(O)cc1 [4,4-bis(4-hydroxyphenyl)valeric acid] |
| 84 °C | O=Cc1ccc(N2CCCC2)cc1 [4-(1-pyrrolidinyl)benzaldehyde] |
| 139 °C | OC1(c2ccc(Cl)cc2)CCNCC1 [4-(4-chlorophenyl)-4-hydroxypiperidine] |
| 54 °C | CCOC(=O)c1ccc(N=C=S)cc1 [4-(ethoxycarbonyl)phenyl isothiocyanate] |
| 137 °C | CCS(=O)(=O)c1ccc(B(O)O)cc1 [4-(ethylsulfonyl)benzeneboronic acid] |
| 105 °C | CCSc1ccc(B(O)O)cc1 [4-(ethylthio)benzeneboronic acid] |
| 280 °C | OCc1ccc(B(O)O)cc1 [4-(hydroxymethyl)benzeneboronic acid] |
| 273 °C | CS(=O)(=O)c1ccc(C(=O)O)cc1 [4-(methylsulfonyl)benzoic acid] |
| 102 °C | O=S(=O)(Cl)c1cc(S(=O)(=O)c2ccccc2)cs1 [4-(phenylsulfonyl)thiophene-2-sulfonyl chloride] |
| 178 °C | O=C(O)c1ccc(C(=O)C(F)(F)F)cc1 [4-(trifluoroacetyl)benzoic acid] |
| 192 °C | Nc1ccc(S(=O)(=O)Nc2ccccn2)cc1 [4-Amino-N-(pyridin-2-yl)benzenesulfonamide] |
| 115 °C | Cc1cc(O)cc(C)c1Cl [4-Chloro-3,5-dimethylphenol] |
| -63 °C | CCN1CCOCC1 [4-Ethylmorpholine] |
| 45.5 °C | Oc1ccc(F)cc1 [4-Fluorophenol] |
| 216 °C | O=C(O)c1ccc(O)cc1 [4-Hydroxybenzoic acid] |
| 79 °C | CC(C)Oc1ccc(Nc2ccccc2)cc1 [4-Isopropoxy-N-phenylaniline] |
| 181 °C | Cc1ccc(C(=O)O)cc1 [4-Methylbenzoic acid] [listing 1 of 2 here] |
| 180 °C | Cc1ccc(C(=O)O)cc1 [4-Methylbenzoic acid] [listing 2 of 2 here] |
| 154 °C | Cc1ccn[nH]c1=O [4-Methylpyridazin-3(2H)-one] |
| 139 °C | Nc1ccc(C=C/C(=N/O)c2ccccc2)cc1 [4-[(3Z)-3-(hydroxyimino)-3-phenylprop-1-en-1-yl]aniline] |
| 160 °C | CC(=O)Nc1ccc(C=O)cc1 [4-acetamidobenzaldehyde] |
| 169 °C | CC(=O)Nc1ccc(O)cc1 [4-acetamidophenol] |

Reference: the Bradley open melting point set (2014)
